Source: US12240841B2, “FXR small molecule agonist and preparation method therefor and use thereof” (Shanghai Institute of Materia Medica, Chinese Academy of …, priority 2019, dated 2025)

Experiments:
[1] = molecular target: T1, FXR receptor (Homo sapiens, UniProt Q96RI1); experiment: FXR activity at the cell level (FXRE luciferase reporter in 293T cells); assay type: cell-based; conditions: 293T cells; for Activity relative to OCA (%) 10 μM: luciferase reporter; for EC50: FXRE luciferase reporter, read-out: EC50 (cell level)
T1 construct: expressed in transfected cells; host or cells: 293T cells
T1 sequence (Q96RI1 1-486): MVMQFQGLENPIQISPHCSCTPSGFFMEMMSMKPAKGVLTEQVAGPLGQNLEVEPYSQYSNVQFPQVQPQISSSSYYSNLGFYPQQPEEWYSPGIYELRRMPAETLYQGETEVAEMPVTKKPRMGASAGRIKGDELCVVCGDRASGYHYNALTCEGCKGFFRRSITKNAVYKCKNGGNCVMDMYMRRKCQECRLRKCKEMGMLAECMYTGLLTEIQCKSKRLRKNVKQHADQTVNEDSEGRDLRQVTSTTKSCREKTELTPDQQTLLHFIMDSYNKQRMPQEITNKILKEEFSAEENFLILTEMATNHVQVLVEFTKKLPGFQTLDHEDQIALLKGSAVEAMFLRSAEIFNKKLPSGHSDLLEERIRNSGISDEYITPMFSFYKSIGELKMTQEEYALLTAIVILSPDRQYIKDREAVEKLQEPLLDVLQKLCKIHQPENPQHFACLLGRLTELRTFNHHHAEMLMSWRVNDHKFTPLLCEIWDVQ
Method: The cells were cultured for 24 hours to ensure plasmid expression. Then the FXR receptor agonist to be tested was added and acted for 18 hours. The fluorescence intensity was detected using luciferase kit (steady-Glo Luciferase Assay system) to reflect the compound's activation efficiency on the FXR receptor. […] The appropriate concentration interval was selected, and the dose-dependent relationship, that is, the EC50 value, was calculated.

[2] = molecular target: T2, recombinant GST-FXR fusion protein (Homo sapiens, UniProt Q96RI1); experiment: FXR activity at the molecular level (AlphaScreen); assay type: biochemical
T2 sequence (Q96RI1 1-486): T1 sequence (Q96RI1 1-486)
Method: Test Method for FXR Activity at the Molecular Level
FXR activity was determined using recombinant GST-FXR fusion protein by Perkin Elmer's AlphaScreen detection reagent. The reaction in this method was carried out in a 384-well plate, and the total reaction volume was 15 μL. The mixture of protein, agonist, co-regulatory factor, AlphaScreen® acceptor beads and AlphaScreen® donor beads was reacted in a buffer containing Tris-HCl 50 mM (pH7.4), 50 mM NaCl, BSA 0.1%, and 1 mM DTT. The FXR activity was reflected by the fluorescence signal intensity at 570 nm wavelength detected by the Envision fluorescence detector. The value of EC50 was calculated by the software Graphpad Prism 5.

[3] = system: TAA-induced hepatic fibrosis model rats; experiment: TAA-induced hepatic fibrosis model rats; assay type: in vivo, rat
Method: 1) Pharmacodynamic Evaluation of Compound 1 (LXF-32) on TAA-Induced Hepatic Fibrosis Model Rats
In this experiment, TAA induced hepatic fibrosis model rats were used to investigate the effect of long-term oral administration of compound 1 on hepatic fibrosis in the model rats.
Experimental method: Male SD rats were intraperitoneally injected with thioacetamide (TAA, dissolved in normal saline) at a dose of 150 mg/kg three times a week to induce a liver fibrosis model. Four weeks after the model was made, the blood was taken from the retro-ocular venous plexus of the rats to detect serum ALP indicators. […] During the administration period, the animal's food intake and body weight were monitored. After 2 weeks of administration, the blood was taken from the retro-ocular venous plexus of the rats to detect serum ALP indicators. After 4 weeks of administration, the blood was taken from the retro-ocular venous plexus and the rats were dislocated and sacrificed. The livers were taken out and weighed. Part of the liver was fixed with 4% paraformaldehyde, and part of the liver was frozen at −80° C. During the whole experiment, another 8 rats in the same cage were injected intraperitoneally with the same volume of normal saline as the system normal control group (WT). This experiment detected indicators such as the level of liver function index ALP in serum, the expression of α-SMA and Col1α1 (fibrosis-related genes) gene level in the liver, the content of hydroxyproline (a characteristic amino acid of collagen) in the liver, and the pathological changes of the liver (Sirius scarlet stain), etc., thereby reflecting whether the compound has the effect of relieving liver fibrosis.

[4] = system: CCL4-induced hepatic fibrosis model mice; experiment: CCL4-induced hepatic fibrosis model mice; assay type: in vivo, mouse
Method: In this experiment, CCL4 induced hepatic fibrosis model mice were used to investigate the effect of long-term oral administration of compound 8 on hepatic fibrosis in the model mice.
Experimental method: Male C57BL/6j mice were injected intraperitoneally with 2 mL/kg, 10% CCl4 (dissolved in olive oil) three times a week to induce liver fibrosis model. Two weeks after the model was made, the blood was taken from the retro-ocular venous plexus of the mice to detect serum ALT, AST, TBA and LDH indicators. According to ALT, AST, TBA, LDH, body weight and other indicators, the mice were randomly divided into 5 groups. […] During the administration period, the animals' food intake and body weight were monitored. After 3 weeks of administration, the blood was taken from the retro-ocular venous plexus of the mice to detect serum ALT, AST, TBA and LDH indicators. After 6 weeks of administration, the blood was taken from the retro-ocular venous plexus and the mice were dislocated and sacrificed. The livers were taken out and weighed. Part of the liver was fixed with 4% paraformaldehyde, and part of the liver was frozen at −80° C. During the whole experiment, another 10 mice in the same cage were intraperitoneally injected with the same volume of olive oil as the system normal control group (WT).
This experiment detected indicators such as the levels of liver function indicators ALT, AST, TBA, LDH in serum, the expression of α-SMA and Col1α1 gene levels in the liver, and the pathological changes of the liver (Sirius scarlet stain), etc., thereby reflecting whether the compound has the effect of relieving liver fibrosis.

[5] = 20 mg/kg oral once a day, 4 weeks
[6] = high-dose 20 mg/kg oral once a day, 6 weeks
[7] = low-dose 6 mg/kg oral once a day, 6 weeks

Q: Which “Activity relative to OCA (%) 10 μM” value [1] does the source give for O=c1[nH]c(-c2cccc(N3CCC(OCc4c(-c5c(Cl)cccc5Cl)noc4C4CC4)CC3)c2)no1 [Example 1] here?
A: 109%

Q: What about the EC50 [1] of the same compound?
A: 110 nM

Q: And the EC50 [2]?
A: 446 nM

Q: And the “collagen content in the liver (Sirius scarlet stained sections)” value [3, 5]?
A: reduced the collagen content in the liver, because there were large differences within the model group, and there was no statistical difference

Q: And the “content of hydroxyproline in liver tissue” value [3, 5]?
A: reduced

Q: What about the “expression of Col1α1 mRNA in liver tissue” value [3, 5] of the same compound?
A: significantly down-regulated

Q: And the “expression of α-SMA mRNA in liver tissue” value [3, 5]?
A: significantly down-regulated

Q: What about the “level of ALP in serum” value ([3]; 20 mg/kg oral once a day, 4 weeks, vs model control) of the same compound?
A: significantly reduced

Q: And the “effect on liver fibrosis (summary)” value ([3]; long-term administration)?
A: a certain alleviating effect

Q: Which results are given for O=c1[nH]c(-c2ccc(N3CCC(OCc4c(-c5ccccc5C(F)(F)F)noc4C4CC4)CC3)cc2)no1 [Example 8]?
A: Activity relative to OCA (%) 10 μM [1]: 88%; EC50 [1]: 5 nM; collagen content in the liver (Sirius scarlet stained sections) ([4]; high-dose 20 mg/kg): significantly reduced; effect on LDH in serum [4, 6]: little effect; level of ALT in serum [4, 6]: significantly reduced; level of AST in serum [4, 6]: significantly reduced; level of TBA in serum [4, 6]: significantly reduced; expression of col1α1 in the liver ([4]; high-dose 20 mg/kg, 6 weeks): down-regulated; expression of α-SMA in the liver ([4]; high-dose 20 mg/kg, 6 weeks): significantly down-regulated; effect on liver fibrosis (summary) ([4]; long-term administration): a certain alleviating effect; collagen content in the liver (Sirius scarlet stained sections) ([4]; low-dose 6 mg/kg): significantly reduced; effect on liver collagen content compared with the low-dose OCA group ([4]; low-dose 6 mg/kg): slightly better; effect on LDH in serum [4, 7]: little effect; level of ALT in serum [4, 7]: significantly reduced; level of AST in serum [4, 7]: significantly reduced; level of TBA in serum [4, 7]: significantly reduced; effect on serum liver function indicators compared with the low-dose OCA group ([4]; low-dose 6 mg/kg, 6 weeks): slightly better; EC50 [2]: 104 nM

Q: For CC[C@H]1[C@@H](O)[C@@H]2[C@H](CC[C@]3(C)[C@@H]([C@H](C)CCC(=O)O)CC[C@@H]23)[C@@]2(C)CC[C@@H](O)C[C@@H]12 [OCA, reference compound], which “level of ALT in serum” value [4, 6] is on record?
A: significantly reduced

Q: And the “level of AST in serum” value [4, 6]?
A: significantly reduced

Q: What about the “level of TBA in serum” value [4, 6] of the same compound?
A: significantly reduced

Q: What about the “level of TBA in serum” value [4, 7] of the same compound?
A: lowering effect
